Values quoted from earlier work as cited in patent US6821523B2, “Topical administration of pharmacologically active bases in the treatment of warts” (Dermatrends, Inc., priority 2002, dated 2004).

What was measured:
cutaneous warts = conditions: for efficacy in words: survey of clinical trials, local wart treatment

Compound | pH of Aqueous Solution, alkalinity in words | efficacy in words (cutaneous warts) | further results
O=P([O-])([O-])O.[K+].[K+] [Potassium phosphate, dibasic] | Aqueous solution is slightly alkaline |  | 
O.O.O.O.O.O.O.O.O.O.O.O.O=P([O-])([O-])[O-].[Na+].[Na+].[Na+] [Sodium phosphate, tribasic dodecahydrate] |  |  | pH of Aqueous Solution (concentration) (1.0% (1%)): 11.9 (1.0%)
O=c1[nH]cc(F)c(=O)[nH]1 [5-fluorouracil] |  | weak at best | 
O=C(O)c1ccccc1O [salicylic acid] |  |  | cure rates (cutaneous warts; simple topical treatments, vs 48% for placebos): about 75%
O=B[O-].[Na+] [Sodium metaborate] | Strongly alkaline |  | 
bleomycin |  | weak at best | 
